The record followed here is patent US20110020460A1, “GPR 119 MODULATORS” (Pfizer Inc., priority 2009, published 2011).

Where “and” joins values, the source holds several entries; their conditions need not be identical. Equal values may be shown once.

The term EC50 denotes the concentration that produces a half-maximal response. For orientation: Ki means the equilibrium dissociation constant of an inhibitor or competing ligand from its target.

The target of assay [1] is T1, human GPR119 (Homo sapiens, UniProt Q8TDV5).
T1 construct: host or cells: HEK293-CRE-beta-lactamase
T1 sequence (Q8TDV5 1-335): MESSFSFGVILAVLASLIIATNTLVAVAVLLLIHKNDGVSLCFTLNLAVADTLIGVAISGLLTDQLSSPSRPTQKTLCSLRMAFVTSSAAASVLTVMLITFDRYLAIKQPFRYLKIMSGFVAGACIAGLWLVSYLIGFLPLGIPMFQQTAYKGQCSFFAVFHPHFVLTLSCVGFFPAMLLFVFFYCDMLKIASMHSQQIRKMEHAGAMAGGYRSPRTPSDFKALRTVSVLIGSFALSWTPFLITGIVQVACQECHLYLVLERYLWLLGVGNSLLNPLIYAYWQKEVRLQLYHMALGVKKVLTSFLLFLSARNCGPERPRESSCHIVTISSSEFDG
Description: beta-lactamase reporter functional assay (hGPR119 HEK293-CRE beta-lactamase cells). Type of assay: cell-based. The conditions noted are these: one value per run; for EC50: hGPR119 HEK293-CRE beta-lactamase cells, read-out: Human B-lactamase Functional EC50; for Intrinsic Activity* (B-lactamase) / Emax: percent of maximal activity relative to standard GPR119 agonist (WO2005121121) at 10 microM; for Emax: read-out: Intrinsic Activity* (B-lactamase).

For assay [2], the target named is T2, human GPR119 (Homo sapiens, UniProt Q8TDV5).
T2 construct: host or cells: U2OS
Kind of assay: beta-arrestin functional assay (DiscoverX PathHunter U2OS hGPR119 beta-arrestin cells). Type of assay: cell-based. Particulars: one value per run; for EC50: U2OS hGPR119 beta-arrestin cells, read-out: Human B-arrestin Functional EC50; for Emax: U2OS, percent of maximal activity relative to standard GPR119 agonist (WO2005121121) at 10 microM, read-out: Intrinsic Activity* (B-arrestin). The method, then:
GPR119 agonist activity was also determined with a cell-based assay utilizing DiscoverX PathHunter β-arrestin cell assay technology and their U2OS hGPR119 β-arrestin cell line (DiscoverX Cat #93-0356C3). In this assay, agonist activation is determined by measuring agonist-induced interaction of […] with activated GPR119. A small, 42 amino acid enzyme fragment, called ProLink was appended to the C-terminus of GPR119. Arrestin was fused to the larger enzyme fragment, termed EA (Enzyme Acceptor). Activation of GPR119 stimulates binding of arrestin and forces the complementation of the two enzyme fragments, resulting in formation of a functional β-galactosidase enzyme capable of hydrolyzing substrate and generating a chemiluminescent signal.
EC50 determinations were made from an agonist-response curves analyzed with a curve fitting program using a 4-parameter logistic dose response equation.
T2 sequence (P32121 whole entry partner, one chain of several): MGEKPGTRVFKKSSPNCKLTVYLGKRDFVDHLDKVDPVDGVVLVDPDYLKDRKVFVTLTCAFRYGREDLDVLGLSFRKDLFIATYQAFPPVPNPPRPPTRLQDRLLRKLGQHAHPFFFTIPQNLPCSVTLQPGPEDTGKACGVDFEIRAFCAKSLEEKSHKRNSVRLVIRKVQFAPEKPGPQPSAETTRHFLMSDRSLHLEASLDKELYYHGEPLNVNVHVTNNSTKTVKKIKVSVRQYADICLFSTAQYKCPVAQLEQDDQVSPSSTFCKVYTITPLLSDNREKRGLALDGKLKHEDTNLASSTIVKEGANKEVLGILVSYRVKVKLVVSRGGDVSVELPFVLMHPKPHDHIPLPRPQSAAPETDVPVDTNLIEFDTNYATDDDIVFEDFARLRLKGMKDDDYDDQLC

The target in assay [3] is T1, human GPR119. Kind of assay: cAMP HTRF functional assay (hGPR119 HEK-CRE beta-lactamase cells). The class given is cell-based. Particulars: one value per run; for Intrinsic Activity* (cAMP) / Emax: percent of maximal activity relative to standard GPR119 agonist (WO2005121121) at 10 μM; for Emax: read-out: Intrinsic Activity* (cAMP); for EC50: hGPR119 HEK-CRE beta-lactamase cells, HTRF cAMP. In general terms: Time-resolved FRET reads energy transfer from a long-lived donor to a nearby acceptor.

For assay [4], the target named is T1, human GPR119. Kind of assay: GPR119 radioligand binding assay ([3H]-Compound A or [3H]-Compound B, HEK 293FT membranes). The conditions noted are these: Ki from IC50 by Cheng-Prusoff; one value per run; read-out: Human Binding Ki.

Regarding `CC(C)OC(=O)N1CCC(n2ncc(COc3ccc(-n4cnnn4)cc3F)c2C#N)CC1` [Example 3, Isopropyl 4-(5-cyano-4-{[2-fluoro-4-(1H-tetrazol-1-yl)phenoxy]-methyl}-1H-pyrazol-1-yl)piperidine-1-carboxylate], in assay [1], the EC50 is 8 nM and 11 nM and 6 nM; the “Intrinsic Activity* (B-lactamase)” value was 105% and 96%; the Emax was 98%. In assay [2], the EC50 amounted to 4 nM and the Emax was 111%. Besides, in assay [3], the “Intrinsic Activity* (cAMP)” value was 91% and 74% and 79% and 84%; the Emax is 86%. The Ki in assay [4] is 5 nM and 10 nM and 37 nM.

Turning to `CC(C)OC(=O)N1CCC(n2ncc(COc3ccc(C#N)cc3F)c2C#N)CC1` [Example 8, Isopropyl 4-{5-cyano-4-[(4-cyano-2-fluorophenoxy)methyl]-1H-pyrazol-1-yl}piperidine-1-carboxylate], in assay [1], the EC50 was 20 nM and 39 nM and 64 nM; the “Intrinsic Activity* (B-lactamase)” value was 102% and 94%; the Emax came to 100%. Moreover, in assay [2], the EC50 was determined as 16 nM and the Emax is 80%. Besides, in assay [3], the EC50 is 9 nM and 6 nM and 7 nM; the “Intrinsic Activity* (cAMP)” value is 75% and 74%; the Emax turned out to be 89%.

In the case of `CC1(OC(=O)N2CCC(n3ncc(COc4cc(F)ccc4F)c3C#N)CC2)CC1` [Example 13, 1-Methylcyclopropyl 4-{5-cyano-4-[(2,5-difluorophenoxy)methyl]-1H-pyrazol-1-yl}piperidine-1-carboxylate], in assay [2], the EC50 was determined as 217 nM and the Emax came out at 119%. For the same compound, in assay [3], the EC50 was 180 nM and 112 nM; the “Intrinsic Activity* (cAMP)” value came to 87%; the Emax was 95%. Besides, in assay [4], the Ki worked out at 149 nM.

As for `CC1(OC(=O)N2CCC(n3ncc(COc4cccc(F)c4F)c3C#N)CC2)CC1` [Example 14, 1-Methylcyclopropyl 4-{5-cyano-4-[(2,3-difluorophenoxy)methyl]-1H-pyrazol-1-yl}piperidine-1-carboxylate], in assay [2], the EC50 came to 495 nM and the Emax worked out at 109%. Also, in assay [3], the EC50 was 436 nM and 494 nM; the “Intrinsic Activity* (cAMP)” value was 78%; the Emax came out at 74%. For the same compound, the Ki in assay [4] worked out at 723 nM.

For `CC1(OC(=O)N2CCC(n3ncc(COc4ccc(C(N)=O)cc4F)c3C#N)CC2)CC1` [Example 15, 1-Methylcyclopropyl 4-{4-[(4-carbamoyl-2-fluorophenoxy)methyl]-5-cyano-1H-pyrazol-1-yl}piperidine-1-carboxylate], in assay [2], the EC50 worked out at 63 nM and the Emax was 104%. For the same compound, in assay [3], the EC50 is 198 nM and 106 nM and 129 nM; the “Intrinsic Activity* (cAMP)” value was 102% and 112% and 131%. Moreover, the Ki in assay [4] is 268 nM and 160 nM.

As to `CC1(OC(=O)N2CCC(n3ncc(COc4c(F)ccc(F)c4F)c3C#N)CC2)CC1` [Example 31, 1-Methylcyclopropyl 4-{5-cyano-4-[(2,3,6-trifluorophenoxy)methyl]-1H-pyrazol-1-yl}piperidine-1-carboxylate], in assay [2], the EC50 stood at 155 nM and the Emax amounted to 92%. In assay [3], the EC50 was 56 nM and 52 nM; the “Intrinsic Activity* (cAMP)” value is 109%; the Emax came out at 107%. In addition, in assay [4], the Ki was determined as 462 nM.
